Results published in patent publication US20130053337A1, “GUANIDINYLATED AMINOGLYCOSIDE-LIPID CONJUGATES” (UNIVERSITY OF MANITOBA, priority 2010, published 2013).

Columns and labels:
[1] = test system: E. faecium ATCC 27270; assay: MIC, broth macrodilution (CLSI); format: cell-based, Enterococcus faecium; settings: E. facium ATCC27270
Method: (§1) All experiments were performed in duplicate.
(§2) Bacterial isolates studied included both reference strains obtained from the American Type Culture Collection (ATCC) as well as clinical strains obtained from the CAN-ICU study which was a national surveillance study assessing the prevalence of antimicrobial resistant pathogens in Canadian intensive care units (Zhanel et al., 2008). Isolates were kept frozen in skim milk at −80° C. until minimum inhibitory concentration (MIC) testing was carried out. Following two subcultures from frozen stock, the in vitro activities of peptides were determined by macrobroth dilution in accordance with the Clinical and Laboratory Standards Institute (CLSI) 2006 guidelines (Zhanel et al., 2008). Stock solutions of peptides were prepared and dilutions made as described by CLSI. Test tubes contained doubling antimicrobial dilutions of cation adjusted Mueller-Hinton broth and inoculated to achieve a final concentration of approximately 5×10^5 cfu/ml then incubated in ambient air for 24 hours prior to reading. Colony counts were performed periodically to confirm inocula. Quality control was regularly performed using ATCC QC organisms.

[2] = test system: sheep red blood cell (erythrocytes); assay: Hemolytic assay (in vitro toxicity); settings: for hemolytic activity at 100 mg/L: sheep erythrocytes, percent hemolysis
Method: Antibacterial activity against Gram-positive and Gram-negative microorganisms was tested via broth macrodilution tests using CLSI methodology (Zhanel et al., 2008). Stock solutions of cationic lipids in water were brought to a concentration of 512 mg/L. Organisms were subcultured and isolated on blood agar, suspended in 3 mL of Mueller-Hinton broth at the turbidity of a […], and diluted to approximately 10^5 cfu/mL before introduction into tubes containing serially diluted lipopeptide antibiotic in Mueller-Hinton broth. Activity testing against S. pneumoniae used broth supplemented with laked horse blood to give 5% horse blood in experimental tubes. Turbidity of lipopeptide solution in broth required creation of control tubes lacking organisms serving as turbidity controls. All tubes were incubated overnight for 16-20 h at 37° C. […] All experiments were performed in duplicate. In-vitro toxicity was determined using a sheep red blood cell hemolytic assay as previously described (Dathe et al., 1996).
In vitro toxicity was determined using a sheep red blood cell (erythrocytes) hemolytic assay (Dathe et al., 1996). […] Erythrocytes were washed and resuspended in Tris buffered saline. The cell suspension was combined with varying concentrations (low to very high) of test and control antimicrobials (e.g., aminoglycosides and APTCs). The samples were centrifuged and the absorbance of the supernatants measured at 540 nm. Tris buffered saline and Triton X were used as negative and positive controls, respectively. The toxicity was assessed by percent hemolysis.

[3] = test system: S. pneumoniae ATCC 49619; assay: MIC, broth macrodilution (CLSI), broth with 5% laked horse blood; format: cell-based, Streptococcus pneumoniae; settings: S. pneumoniae ATCC49619
Method: as §1, §2

[4] = test system: S. epidermidis ATCC 14990; assay: MIC, broth macrodilution (CLSI); format: cell-based, Staphylococcus epidermidis; settings: S. epidermidis ATCC14990
Method: as §1, §2

[5] = test system: S. aureus ATCC 29213; assay: MIC, broth macrodilution (CLSI); format: cell-based, Staphylococcus aureus; settings: S. aureus ATCC29213
Method: as §1, §2

[6] = test system: MRSE CAN-ICU 61589; assay: MIC, broth macrodilution (CLSI); format: cell-based, methicillin-resistant Staphylococcus epidermidis
Method: as §1, §2

[7] = test system: E. coli (amikacin MIC 32 mg/L) CAN-ICU 63074; assay: MIC, broth macrodilution (CLSI); format: cell-based; settings: E. coli CAN-ICU 63074
Method: as §1, §2

[8] = test system: P. aeruginosa (gentamicin-resistant) CAN-ICU 62308; assay: MIC, broth macrodilution (CLSI); format: cell-based
Method: as §1, §2

[9] = test system: E. coli (gentamicin-resistant) CAN-ICU 61714; assay: MIC, broth macrodilution (CLSI); format: cell-based; settings: E. coli CAN-ICU 61714
Method: as §1, §2

[10] = test system: P. aeruginosa ATCC 27853; assay: MIC, broth macrodilution (CLSI); format: cell-based; settings: P. aeruginosa ATCC27853
Method: as §1, §2

[11] = test system: E. coli ATCC 25922; assay: MIC, broth macrodilution (CLSI); format: cell-based; settings: E. coli ATCC25922
Method: as §1, §2

[12] = test system: E. faecalis ATCC 29212; assay: MIC, broth macrodilution (CLSI); format: cell-based, Enterococcus faecalis; settings: E. faecalis ATCC29212
Method: as §1, §2

[13] = test system: MRSA ATCC 33592; assay: MIC, broth macrodilution (CLSI); format: cell-based, methicillin-resistant Staphylococcus aureus; settings: for MIC: MRSA ATCC33592; for fold lower MIC (MRSA) compared to analogs 6 and 7: guanidinylated vs polyamine analog
Method: as §1, §2

[14] = test system: MRSE CAN-ICU 61589; settings: Zhanel et al., 2008; cited from earlier work
[15] = gentamicin-resistant (as well as neomycin B and kanamycin A-resistant) P. aeruginosa strain

Row | SMILES | MIC [1] | hemolytic activity at 100 mg/L [2] | hemolytic activity compared to polyamine analogs 3 and 15 ([2]; in words) | MIC [3] | MIC [4] | MIC [5] | MIC [6] | MIC [7] | MIC ([8]; P. aeruginosa CAN-ICU 62308) | MIC [8, 15] | MIC [9] | MIC [10] | MIC [11] | MIC [12] | MIC [13] | fold lower MIC (MRSA) compared to analogs 6 and 7 [13] | MIC (strain description) [14]
1 | CCCCCCCCCCCCCCCC(=O)NCC1OC(OC2C(O)C(NC(=N)N)CC(NC(=N)N)C2OC2OC(CNC(=N)N)C(O)C(O)C2NC(=N)N)C(O)C1OC1OC(CNC(=N)N)C(O)C(O)C1NC(=N)N.O=C(O)C(F)(F)F.O=C(O)C(F)(F)F.O=C(O)C(F)(F)F.O=C(O)C(F)(F)F.O=C(O)C(F)(F)F.O=C(O)C(F)(F)F (stereo not shown) [Compound 10, 1,3,2′,6′,2′″,6′″-Hexaammonium-guanidinyl-5″-deoxy-5″-N-(hexadecanoyl)-neomycin hexakis(trifluoroacetate)] | 0.5 mg/L | 13% | reduced hemolytic activity | 32 mg/L | 1 mg/L | 4 mg/L | 4 mg/L | 32 mg/L | 8 mg/L | 8 mg/L | 64 mg/L | 32 mg/L | 32 mg/L | 4 mg/L | 4 mg/L | – | –
2 | CCCCCCCCCCCCCCCCCCCC(=O)NCC1OC(OC2C(O)C(NC(=N)N)CC(NC(=N)N)C2OC2OC(CNC(=N)N)C(O)C(O)C2NC(=N)N)C(O)C1OC1OC(CNC(=N)N)C(O)C(O)C1NC(=N)N.O=C(O)C(F)(F)F.O=C(O)C(F)(F)F.O=C(O)C(F)(F)F.O=C(O)C(F)(F)F.O=C(O)C(F)(F)F.O=C(O)C(F)(F)F (stereo not shown) [Compound 11] | 2 mg/L | 82% | – | 64 mg/L | 4 mg/L | 32 mg/L | 4 mg/L | 128 mg/L | 64 mg/L | – | 128 mg/L | 128 mg/L | 64 mg/L | 32 mg/L | 32 mg/L | – | –
3 | CCCCC/C=C\C/C=C\CCCCCCCC(=O)NCC1OC(OC2C(O)C(NC(=N)N)CC(NC(=N)N)C2OC2OC(CNC(=N)N)C(O)C(O)C2NC(=N)N)C(O)C1OC1OC(CNC(=N)N)C(O)C(O)C1NC(=N)N.O=C(O)C(F)(F)F.O=C(O)C(F)(F)F.O=C(O)C(F)(F)F.O=C(O)C(F)(F)F.O=C(O)C(F)(F)F.O=C(O)C(F)(F)F (stereo not shown) [Compound 12, 1,3,2′,6′,2′″,6′″-Hexaammonium-guanidinyl-5″-deoxy-5″-N-(9Z,12Z,octadeca-di-ene-oyl)-neomycin hexakis(trifluoroacetate)] | 64 mg/L | 1% | – | 128 mg/L | 4 mg/L | 8 mg/L | 8 mg/L | 64 mg/L | 64 mg/L | – | 128 mg/L | 128 mg/L | 64 mg/L | 64 mg/L | 16 mg/L | – | –
4 | N=C(N)NCC1OC(OC2C(CNC(=O)CCCc3ccc4ccc5cccc6ccc3c4c56)OC(OC3C(O)C(NC(=N)N)CC(NC(=N)N)C3OC3OC(CNC(=N)N)C(O)C(O)C3NC(=N)N)C2O)C(NC(=N)N)C(O)C1O.O=C(O)C(F)(F)F.O=C(O)C(F)(F)F.O=C(O)C(F)(F)F.O=C(O)C(F)(F)F.O=C(O)C(F)(F)F.O=C(O)C(F)(F)F (stereo not shown) [Compound 13, 1,3,2′,6′,2′″,6′″-Hexaammonium-guanidinyl-5″-deoxy-5″-N-((4-pyrenyl)-butanoyl)-neomycin hexakis(trifluoroacetate)] | 16 mg/L | 3% | – | 64 mg/L | 8 mg/L | 8 mg/L | 8 mg/L | 32 mg/L | 16 mg/L | 16 mg/L | 32 mg/L | 32 mg/L | 32 mg/L | 32 mg/L | 8 mg/L | 32 fold | –
5 | CC(CCC(=O)NCC1OC(OC2C(O)C(NC(=N)N)CC(NC(=N)N)C2OC2OC(CNC(=N)N)C(O)C(O)C2NC(=N)N)C(O)C1OC1OC(CNC(=N)N)C(O)C(O)C1NC(=N)N)C1CCC2C3C(O)CC4CC(O)CCC4(C)C3CC(O)C12C.O=C(O)C(F)(F)F.O=C(O)C(F)(F)F.O=C(O)C(F)(F)F.O=C(O)C(F)(F)F.O=C(O)C(F)(F)F.O=C(O)C(F)(F)F (stereo not shown) [Compound 14, 1,3,2′,6′,2′″,6′″-Hexaammonium-guanidinyl-5″-deoxy-5″-N-(cholanoyl)-neomycin hexakis(trifluoroacetate)] | 16 mg/L | 2% | – | 64 mg/L | 4 mg/L | 16 mg/L | 8 mg/L | 32 mg/L | 32 mg/L | – | 64 mg/L | 128 mg/L | 64 mg/L | 32 mg/L | 16 mg/L | 8 fold | –
6 | CCCCCCCCCCCCCCCC(=O)NCC1OC(OC2C(N)CC(N)C(OC3OC(CN)C(O)C(O)C3O)C2O)C(O)C(N)C1O.O=C(O)C(F)(F)F.O=C(O)C(F)(F)F.O=C(O)C(F)(F)F.O=C(O)C(F)(F)F (stereo not shown) [Compound 15, 1,3,6′,3″-Tetraammonium-6″-deoxy-6″-N-(hexadecanoyl)-kanamycin-tetrakis-(trifluoroacetate)] | 8 mg/L | 20% | – | 64 mg/L | 2 mg/L | 8 mg/L | 2 mg/L | 32 mg/L | 64 mg/L | – | 32 mg/L | 64 mg/L | 32 mg/L | 8 mg/L | 16 mg/L | – | –
7 | CCCCCCCCCCCCCCCC(=O)NCC1OC(OC2C(NC(=N)N)CC(NC(=N)N)C(OC3OC(CNC(=N)N)C(O)C(O)C3O)C2O)C(O)C(NC(=N)N)C1O.O=C(O)C(F)(F)F.O=C(O)C(F)(F)F.O=C(O)C(F)(F)F.O=C(O)C(F)(F)F (stereo not shown) [Compound 16, 1,3,6′,3″-Tetraammonium-guanidinyl-6″-deoxy-6″-N-(hexadecanoyl)-kanamycin-tetrakis-(trifluoroacetate)] | 16 mg/L | 6.7% | – | 128 mg/L | 8 mg/L | 16 mg/L | 8 mg/L | 64 mg/L | 64 mg/L | – | 128 mg/L | 256 mg/L | 64 mg/L | 16 mg/L | 8 mg/L | – | –
8 | Cc1nnc(SCC2=C(C(=O)O)N3C(=O)[C@@H](NC(=O)Cn4cnnn4)[C@H]3SC2)s1 [cefazolin] | – | – | – | – | – | – | – | – | – | – | – | – | – | – | – | – | > 32 mg/L
